Series [1] relates to HEK293. The series can be described thus: Cytotoxicity against human HEK293 cells assessed as reduction in cell viability after 5 days by MTS/PMS assay. The series is classed as cell-based. The conditions noted are these: HEK293, 120 h.
Series [2] has as its system 2008. The series can be described thus: Antiproliferative activity against human 2008 cells assessed as reduction in cell viability after 5 days by MTS/PMS assay. The class given is functional, cell-based. The conditions noted are these: Homo sapiens, 2008, 120 h.
Series [3] is described as follows: Antiproliferative activity against human LCC6 cells assessed as reduction in cell viability after 5 days by MTS/PMS assay. The class given is functional, cell-based. The conditions noted are these: LCC-6, 120 h.
The subject of series [4] is HFF-1. The series can be described thus: Cytotoxicity against human HFF1 cells assessed as reduction in cell viability. The series is classed as cell-based.
Series [5] in a line: Cytotoxicity against mouse L929 cells assessed as reduction in cell viability.
Series [6] has as its system NIH3T3. The series can be described thus: Cytotoxicity against mouse 3T3 cells assessed as reduction in cell viability. The class given is cell-based.
The target in series [7] is T1, Broad substrate specificity ATP-binding cassette transporter ABCG2 (Homo sapiens, UniProt Q9UNQ0).
T1 sequence (Q9UNQ0 whole entry): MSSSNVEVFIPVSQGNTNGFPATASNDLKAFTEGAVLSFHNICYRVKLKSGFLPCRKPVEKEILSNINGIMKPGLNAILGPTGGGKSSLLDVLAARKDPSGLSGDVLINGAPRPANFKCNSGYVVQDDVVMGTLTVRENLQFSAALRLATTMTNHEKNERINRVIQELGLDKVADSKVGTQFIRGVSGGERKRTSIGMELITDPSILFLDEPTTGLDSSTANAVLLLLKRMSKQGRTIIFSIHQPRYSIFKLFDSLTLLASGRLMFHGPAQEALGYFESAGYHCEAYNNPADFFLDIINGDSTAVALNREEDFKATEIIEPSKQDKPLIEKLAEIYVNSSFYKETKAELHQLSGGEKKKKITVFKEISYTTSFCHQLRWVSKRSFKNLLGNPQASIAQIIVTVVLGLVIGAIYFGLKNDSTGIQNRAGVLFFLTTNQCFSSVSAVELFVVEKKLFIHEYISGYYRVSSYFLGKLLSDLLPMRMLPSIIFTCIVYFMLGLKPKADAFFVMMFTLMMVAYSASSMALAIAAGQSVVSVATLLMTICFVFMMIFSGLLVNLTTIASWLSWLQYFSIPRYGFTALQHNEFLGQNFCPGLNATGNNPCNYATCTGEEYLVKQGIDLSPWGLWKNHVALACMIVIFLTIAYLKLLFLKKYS
The series is described as follows: Inhibition of BCRP (unknown origin).

Series [8] concerns the target T1, Broad substrate specificity ATP-binding cassette transporter ABCG2. The series is described as follows: Inhibition of vanadate sensitive BCRP ATPase activity in human S1-M1-80 cell membranes preincubated for 30 mins followed by ATP addition and measured after 1 hr by colorimetric assay.
Series [9] relates to HEK293. The series can be described thus: Effect on intracellular topotecan level in human HEK293 cells at 5 uM up to 15 mins by flow cytometric analysis. The class given is functional, cell-based.
The target in series [10] is T1, Broad substrate specificity ATP-binding cassette transporter ABCG2. The series is described as follows: Inhibition of BCRP (unknown origin) expressed in human HEK293/R2 cells assessed as increase in intracellular topotecan accumulation by measuring fold change at 1 uM after 120 mins in presence of topotecan by flow cytometry analysis relative to control. Particulars: 2 h.

The species entered for series [11] is Homo sapiens. The series can be described thus: Effect on BCRP protein expression in human HEK293/R2 cells at 1 to 3 uM after 4 days by flow cytometric analysis. The class given is functional, cell-based.

Data on 29 compounds can be found in ChEMBL document CHEMBL4321806 (J Med Chem, 2019).

Calls of active or inactive are those of the source. The rule behind the calls is not given here.

For the compound `O=C1c2c(O)ccc(O)c2C(=O)c2c(NCCNCCO)ccc(NCCNCCO)c21` [MITOXANTRONE], the IC50 came to 0.0117 µM in series [1], 0.0078 µM in series [2] and 0.0374 µM in series [3].

`COC(=O)c1cccc(COc2c(-c3ccc(OCCOCCn4cc(CCCc5cn(CCOCCOc6ccc(-c7oc8ccccc8c(=O)c7OCc7cccc(C(=O)OC)c7)cc6)nn5)nn4)cc3)oc3ccccc3c2=O)c1`: the concentration for half-maximal inhibition (IC50) in series [4], in series [5] and in series [6] was over 100 µM throughout.

As for `COC(=O)c1cccc(COc2c(-c3ccc(OCCOCCOCCn4cc(-c5cccc(-c6cn(CCOCCOCCOc7ccc(-c8oc9ccccc9c(=O)c8OCc8cccc(C(=O)OC)c8)cc7)nn6)c5)nn4)cc3)oc3ccccc3c2=O)c1`, the half-maximal inhibitory concentration (IC50) in series [4], in series [5] and in [6] was over 100 µM throughout. Turning to `COC(=O)c1cccc(COc2c(-c3ccc(OCCOCCOCCn4cc(CN(Cc5cn(CCOCCOCCOc6ccc(-c7oc8ccccc8c(=O)c7OCc7cccc(C(=O)OC)c7)cc6)nn5)c5ccccc5)nn4)cc3)oc3ccccc3c2=O)c1`, the IC50 in series [4], in series [5] and in series [6] was over 100 µM throughout. As for `COC(=O)c1cccc(COc2c(-c3ccc(OCCOCCn4cc(CN(Cc5cn(CCOCCOc6ccc(-c7oc8ccccc8c(=O)c7OCc7cccc(C(=O)OC)c7)cc6)nn5)c5ccccc5)nn4)cc3)oc3ccccc3c2=O)c1`, the IC50 in [4], in series [5] and in series [6] was over 100 µM throughout. `COc1cc2c(cc1OC)CN(CCc1ccc(NC(=O)c3cc(OC)c(OC)cc3NC(=O)c3cnc4ccccc4c3)cc1)CC2` came in with an EC50 in series [7] of 0.1 µM. As to `COc1ccc2c3c([nH]c2c1)[C@H](CC(C)C)N1C(=O)[C@H](CCC(=O)OC(C)(C)C)NC(=O)[C@@H]1C3`, the figures for the IC50 in series [4], in series [5] and in [6] were 56.5 µM, 31.4 µM and over 100 µM, respectively. As for `COC(=O)c1cccc(COc2c(-c3ccc(OCCOCCn4cc(-c5cccc(-c6cn(CCOCCOc7ccc(-c8oc9ccccc9c(=O)c8OCc8cccc(C(=O)OC)c8)cc7)nn6)c5)nn4)cc3)oc3ccccc3c2=O)c1`, the IC50 in series [4], in [5] and in series [6] was over 100 µM throughout. Further, the “inhibition (INH)” value in [8] was “Dose-dependent effect”. Besides, the result in series [9] and in [11] was inactive. In addition, in series [10], the FC fell in the range of 11 to 12. `COC(=O)c1cccc(COc2c(-c3ccc(OCCOCCn4cc(CN(Cc5ccccc5)Cc5cn(CCOCCOc6ccc(-c7oc8ccccc8c(=O)c7OCc7cccc(C(=O)OC)c7)cc6)nn5)nn4)cc3)oc3ccccc3c2=O)c1`: the half-maximal inhibitory concentration (IC50) in series [4], in series [5] and in [6] was over 100 µM in each case. Regarding `COC(=O)c1cccc(COc2c(-c3ccc(OCCOCCOCCn4cc(CN(Cc5ccccc5)Cc5cn(CCOCCOCCOc6ccc(-c7oc8ccccc8c(=O)c7OCc7cccc(C(=O)OC)c7)cc6)nn5)nn4)cc3)oc3ccccc3c2=O)c1`, the concentration for half-maximal inhibition (IC50) in [4], in [5] and in series [6] was over 100 µM each time.

As for `COC(=O)c1cccc(COc2c(-c3ccc(OCCOCCn4cc(COCc5cn(CCOCCOc6ccc(-c7oc8ccccc8c(=O)c7OCc7cccc(C(=O)OC)c7)cc6)nn5)nn4)cc3)oc3ccccc3c2=O)c1`, the IC50 in [4], in [5] and in [6] was over 100 µM each time.

In [7], `COc1ccc2c3c([nH]c2c1)[C@H](C=C(C)C)N1C(=O)[C@@H]2CCCN2C(=O)[C@@H]1C3` [FUMITREMORGIN] had an EC50 of 1 to 5 µM. With `OCCOCCn1cc(CN(Cc2ccccc2)Cc2cn(CCOCCO)nn2)nn1`, the IC50 in series [5] is over 100 µM.

On to `COC(=O)c1cccc(COc2c(-c3ccc(OCCOCCOCCn4cc(CCCCOc5ccc(-c6cc(=O)c7cc(C)ccc7o6)cc5)nn4)cc3)oc3ccccc3c2=O)c1`, for which the 50% inhibitory concentration (IC50) in [5] is over 100 µM. On to `O=c1cc(-c2ccccc2)oc2cc(OCCCCc3cn(CCOCCOc4ccc5c(=O)cc(-c6ccccc6)oc5c4)nn3)ccc12`, for which the IC50 in series [5] was over 100 µM. Take `COC(=O)c1cccc(COc2c(-c3ccc(OCCOCCn4cc(CCCCOc5ccc6c(=O)cc(-c7ccccc7)oc6c5)nn4)cc3)oc3ccccc3c2=O)c1`: the IC50 in series [5] was over 100 µM. With `O=c1cc(-c2ccc(OCCOCCOCCn3cc(CCCOc4ccc5c(=O)cc(-c6ccccc6)oc5c4)nn3)cc2)oc2ccccc12`, in series [5], the IC50 came out at 12 µM. As to `COC(=O)c1cccc(COc2c(-c3ccc(OCCOCCn4cc(CCCOc5ccc(-c6cc(=O)c7ccc(F)cc7o6)cc5)nn4)cc3)oc3ccccc3c2=O)c1`, in series [5], the concentration for half-maximal inhibition (IC50) was over 100 µM. Same read-out and setting: the figure for `Cc1ccc2oc(-c3ccc(OCCCCc4cn(CCN(CCOc5ccc6c(=O)cc(-c7ccccc7)oc6c5)Cc5ccccc5)nn4)cc3)cc(=O)c2c1` is over 100 µM; for `COC(=O)c1cccc(COc2c(-c3ccc(OCCOCCn4cc(COCCOc5ccc6c(=O)cc(-c7ccccc7)oc6c5)nn4)cc3)oc3ccccc3c2=O)c1` it is over 100 µM. Consider `COC(=O)c1cccc(COc2c(-c3ccc(OCCOCCOCCn4cc(-c5ccc(-c6cn(CCOCCOCCOc7ccc(-c8oc9ccccc9c(=O)c8OCc8cccc(C(=O)OC)c8)cc7)nn6)cc5)nn4)cc3)oc3ccccc3c2=O)c1`, for which the IC50 in series [4], in [5] and in series [6] was over 100 µM each time.

As to `O=c1cc(-c2ccccc2)oc2cc(OCCCc3cn(CCOCCOCCOc4ccc(-c5oc6ccccc6c(=O)c5OCc5ccccc5)cc4)nn3)ccc12`, the IC50 in series [5] is over 100 µM. Take `O=c1c(OCc2ccccc2)c(-c2ccc(OCCOCCOCCn3cc(CN(Cc4ccccc4)Cc4cn(CCOCCOCCOc5ccc(-c6oc7ccccc7c(=O)c6OCc6ccccc6)cc5)nn4)nn3)cc2)oc2ccccc12`: in series [5], the IC50 was over 100 µM. Same read-out and setting: the figure for `O=c1cc(-c2ccccc2)oc2cc(OCCOCCOCCn3cc(CN(Cc4ccccc4)Cc4cn(CCOCCOCCOc5ccc6c(=O)cc(-c7ccccc7)oc6c5)nn4)nn3)ccc12` is over 100 µM. On the same count and under the same terms, the figure for `O=c1cc(-c2ccccc2)oc2cc(OCCOCCn3cc(CN(Cc4ccccc4)Cc4cn(CCOCCOc5ccc6c(=O)cc(-c7ccccc7)oc6c5)nn4)nn3)ccc12` is over 100 µM; for `COC(=O)c1cccc(COc2c(-c3ccc(OCCOCCn4cc(CCCOc5ccc6c(=O)cc(-c7ccccc7)oc6c5)nn4)cc3)oc3ccccc3c2=O)c1` it is over 100 µM. As for `Cc1ccc2oc(-c3ccc(OCCOCCOCCn4cc(COCCOc5ccc6c(=O)cc(-c7ccccc7)oc6c5)nn4)cc3)cc(=O)c2c1`, the IC50 in series [5] is over 100 µM. Turning to `O=c1cc(-c2ccccc2)oc2cc(OCCCCc3cn(CCOCCOc4ccc(-c5cc(=O)c6cc(F)ccc6o5)cc4)nn3)ccc12`, the IC50 in series [5] was over 100 µM.

`Cc1ccc2oc(-c3ccc(OCCCCc4cn(CCOCCOCCOc5ccc6c(=O)cc(-c7ccccc7)oc6c5)nn4)cc3)cc(=O)c2c1`: the IC50 in [5] is over 100 µM.
